Results reported in article PMC3071873 (Journal of medicinal chemistry, 2010).
Several values for one entry are separate records, joined by “and”; a condition that tells them apart may be missing. Identical values can stand only once.

Legend:
[1] = tested on: toxic effect of 1-methyl-4-phenyl-tetrahydropyridine (MPTP); conditions: mice; cited from earlier work
[2] = storage in solution; oxidative or hydrolytic degradation; cited from earlier work
[3] = molecular target: T1, human MAO B (Homo sapiens, UniProt P27338); assay: Inhibition of purified recombinant human MAO B; format: biochemical; conditions: versus safinamide (ref 12)
T1 sequence (P27338 1-520): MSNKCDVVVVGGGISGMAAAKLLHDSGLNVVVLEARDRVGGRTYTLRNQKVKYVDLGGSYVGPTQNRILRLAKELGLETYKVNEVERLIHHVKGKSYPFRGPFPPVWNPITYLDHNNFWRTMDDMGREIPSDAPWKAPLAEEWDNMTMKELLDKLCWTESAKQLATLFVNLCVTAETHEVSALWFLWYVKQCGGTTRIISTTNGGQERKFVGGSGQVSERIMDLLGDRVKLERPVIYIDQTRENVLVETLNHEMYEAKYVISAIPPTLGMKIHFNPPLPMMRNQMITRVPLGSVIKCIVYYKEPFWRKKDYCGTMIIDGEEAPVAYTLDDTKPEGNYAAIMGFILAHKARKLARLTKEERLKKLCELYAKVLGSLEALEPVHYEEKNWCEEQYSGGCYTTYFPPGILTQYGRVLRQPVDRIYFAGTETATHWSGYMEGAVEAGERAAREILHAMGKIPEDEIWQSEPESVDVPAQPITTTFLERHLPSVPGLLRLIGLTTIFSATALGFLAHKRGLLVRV

[4] = cited from earlier work
[5] = molecular target: rat monoamine oxidase (MAO) B; conditions: weak inhibitor; cited from earlier work
[6] = tested on: mouse MAO B; conditions: membrane-bound mouse MAO B; cited from earlier work
[7] = humans, daily dosage of 25 mg; cited from earlier work

Which results are given for NS(=O)(=O)Cc1noc2ccccc12 [Zonisamide, 1,2-benzisoxazole-3-methanesulfonamide]?
effect on MPTP toxicity [1]: attenuates the toxic effect; stability of aged solutions [2]: lose inhibition potency on storage in solution; weaker Ki value with human MAO B compared to safinamide [3]: ~ 6 fold; brain tissue versus plasma concentrations [4]: higher in brain tissues; Ki [5]: 660 µM; IC50 [6]: 25 µM; plasma (serum) concentration [7]: ~ 0.6 μM and 0.6 μM
